The source of these data is ChEMBL document CHEMBL4184189, “Discovery of orally efficacious RORγt inverse agonists, part 1: Identification of novel phenylglycinamides as lead scaffolds” (Bioorg Med Chem, 2018).

SMILES strings stand for the structures. pIC50: −log10 of the molar value.

The term AUC(0-t) denotes the area under the concentration-time curve up to a stated or last time point. A lower AUC(0-t) goes with less exposure. Broadly, the Tmax is the time from dosing to the highest level. The inhibition in vivo is the relative decrease from the control value, in per cent. What is called AUC is concentration integrated over time. A low value points to low exposure. The Cmax is the maximum level reached in the sampled fluid or tissue. As a reminder, the pIC50 is −log10 of the IC50, conventionally taken in molar units. The term inhibition denotes the drop in the measured response relative to a control, in per cent. Higher therefore signals a response far below the control.

Data set [1] can be described thus: Drug uptake in Balb/c mouse plasma at 10 to 100 mg/kg, po. Format: ADME, organism-based. To be noted: in vivo.
Data set [2] can be described thus: Drug uptake in po dosed Balb/c mouse ear after 8 hrs. Format: ADME, organism-based. Particulars: in vivo; call rule not given here.
The nature of data set [3]: Drug uptake in po dosed Balb/c mouse ear. Format: ADME, organism-based. To be noted: in vivo.
A short description of data set [4]: AUC (0 to 24 hrs) in mouse plasma at 100 mg/kg, po. Format: ADME, organism-based. Also noted: dose 100 mg/kg, time < 24 hr, route oral.
The nature of data set [5]: Tmax in mouse plasma at 100 mg/kg, po. Format: ADME, organism-based.
Data set [6] deals with Mus musculus. The data set is described as follows: In vivo inverse agonist activity at RORgammat in Balb/c mouse assessed as inhibition of IL-23-induced IL-17a gene expression at 100 mg/kg, po administered 30 mins before and 8 hrs after IL-23 injection in ears intradermally measured after 24 hrs by qRT-PCR analysis relative to control. The format is functional. (In general: Real-time PCR tracks product formation cycle by cycle.)

Data set [7] concerns Mus musculus. The data set is described as follows: (§1) AUC (0 to 8 hrs) in mouse at 1 mg/kg, po administered as cassette dose. The format is ADME, organism-based. Particulars: in vivo, 8 h. Also noted: time < 8 hr, dose 1 mg/kg, route oral.
The nature of data set [8]: Cmax in mouse plasma at 100 mg/kg, po. The format is ADME, organism-based. More on the design: dose 100 mg/kg, route oral.
The target in data set [9] is T1, Nuclear receptor ROR-gamma (Homo sapiens, UniProt P51449).
T1 sequence (P51449 whole entry): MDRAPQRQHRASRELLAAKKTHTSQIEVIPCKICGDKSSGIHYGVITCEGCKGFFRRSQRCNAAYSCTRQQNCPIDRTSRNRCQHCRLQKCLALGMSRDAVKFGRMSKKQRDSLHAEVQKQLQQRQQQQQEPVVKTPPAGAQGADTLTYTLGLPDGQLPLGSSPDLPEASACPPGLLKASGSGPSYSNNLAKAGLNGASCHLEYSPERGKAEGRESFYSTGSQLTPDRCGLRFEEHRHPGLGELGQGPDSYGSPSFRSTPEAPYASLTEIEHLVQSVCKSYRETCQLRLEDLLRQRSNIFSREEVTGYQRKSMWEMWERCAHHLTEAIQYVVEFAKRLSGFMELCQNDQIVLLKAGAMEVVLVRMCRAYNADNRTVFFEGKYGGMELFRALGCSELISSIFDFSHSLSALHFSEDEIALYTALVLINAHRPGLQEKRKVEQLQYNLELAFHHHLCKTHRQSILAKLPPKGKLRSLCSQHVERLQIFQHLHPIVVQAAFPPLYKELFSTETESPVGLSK
As to the kind of experiment: Inverse agonist activity at RORgammat in human Jurkat cells assessed as inhibition of transcriptional activity after overnight incubation by human IL-17 ROR response element driven-bright-glo luciferase reporter gene assay. The format is cell-based. Background: Reporter assays use an easily measured gene product as a stand-in for the process of interest.

Data set [10] addresses T1, Nuclear receptor ROR-gamma. As to the kind of experiment: Displacement of BODIPY-cholesterol from human His-tagged RORgammat after 20 mins by TR-FRET assay. A general note: Time-resolved FRET reads energy transfer from a long-lived donor to a nearby acceptor.
In data set [11] the target is T2, Nuclear receptor ROR-gamma (Homo sapiens) (UniProt P51449).
T2 sequence (whole entry): T1 sequence (P51449 whole entry)
The data set is described as follows: Displacement of 25-[3H2]hydroxycholesterol from GST-tagged RORgammat (unknown origin) at 10 uM.

The species named for data set [12] is Homo sapiens. As to the kind of experiment: Selectivity ratio of IC50 for RORbeta in human Jurkat cells to IC50 for RORgammat in human Jurkat cells. Format: cell-based.
Data set [13] is filed under the species Homo sapiens. The data set is described as follows: Selectivity ratio of IC50 for RORalpha in human Jurkat cells to IC50 for RORgammat in human Jurkat cells. The format is cell-based.
Data set [14] can be described thus: as §1. The format is ADME, organism-based. Also noted: time < 8 hr, dose 1 mg/kg, route oral. To be noted: in vivo.

Regarding `COc1ccc([C@H](C(=O)Nc2cc(F)c([Si](C)(C)C)c(F)c2)N(C)C(=O)c2cc(O)no2)cc1`, the Drug uptake entry is “Active” in [1]; “Active” in [2]; “Dose-dependent effect and Tde” in data set [3]. Also, in data set [4], the AUC(0-t) at 24 h worked out at 47400 ng·h/mL. Further, the Tmax in data set [5] is 1 h. Further, the inhibition in vivo at 100 mg/kg in the data set on Mus musculus [6] worked out at 71%. Besides, the AUC in the data set on Mus musculus [7] is 370 ng·h/mL. Also, in [8], the peak level (Cmax) was 9120 ng/mL.

`COc1ccc(C(CC(=O)Nc2ccc(C(C)(C)C)cc2)N(C)C(=O)c2ccc(=O)[nH]c2)cc1` (racemic): the results for the pIC50 in data set [9] and in data set [10] were < 4.52 and < 5.00, respectively.

With `COc1ccc(C(C(=O)Nc2ccc(C(C)C)cc2)N(C)C(=O)c2ccc(O)nc2)cc1` (racemic), the inhibition in data set [11] was determined as 93%. In addition, the values for the pIC50 in data set [9] and in data set [10] were 5.80 and 6.70, respectively. Moreover, the Ratio IC50 in the data set filed under Homo sapiens [12] and in the data set listed under Homo sapiens [13] was > 15 throughout.

Consider `COc1ccc(C(C(=O)N(C)c2ccc(C(C)(C)C)cc2)N(C)C(=O)c2ccc(=O)[nH]c2)cc1` (racemic), for which the figures for the pIC50 in data set [9] and in data set [10] were < 4.52 and < 5.00, respectively.

Consider `COc1ccc(C(C(=O)Nc2ccc([Si](C)(C)C)cc2)N(C)C(=O)c2ccc(O)nc2)cc1` (racemic), for which, in [14], the area under the curve AUC(0-t) at 8 h was 86 ng·h/mL.

In the case of `COc1ccc(CC(C(=O)Nc2ccc(C(C)(C)C)cc2)N(C)C(=O)c2ccc(=O)[nH]c2)cc1` (racemic), the figures for the pIC50 in data set [9] and in data set [10] were < 4.52 and < 5.00, respectively.

In turn, `COc1ccc(C(C(=O)Nc2ccc([Si](C)(C)C)cc2)N(C)C(=O)c2cc(O)no2)cc1` (racemic) registered an AUC(0-t) at 8 h in data set [14] of 1590 ng·h/mL.

`COc1ccc(C(C(=O)Nc2cc(F)c([Si](C)(C)C)c(F)c2)N(C)C(=O)c2cc(O)no2)cc1` (racemic) displayed an AUC(0-t) at 8 h in data set [14] of 1510 ng·h/mL.
